Laboratory results reported in US20170190705A1, “Compositions and Methods for Inhibiting BMP” (THE BRIGHAM AND WOMAN'S HOSPITAL, INC., priority 2014, published 2017).
Read-outs that look alike come from different tables or passages of the source.

Legend:
Format in all cases: biochemical
PDGFRβ = PDGFRβ (Homo sapiens, UniProt P09619); test: Kinome profiling PDGFRβ; conditions: for inhibition at 0.1 µM: 100 nM
Experimental: (§1) . The kinome-wide selectivity was determined following the methods previously reported by Mohedas et al., ACS Chem Biol 2013, 8, 1291-1302 and Sanvitale et al., PLoS One 2013, 8, e62721.

TXK = target: T1, TXK (Homo sapiens, UniProt P42681); test: Kinome profiling TXK; conditions: read-out: Inhibitory activity TXK; for inhibition at 0.1 µM: 100 nM
T1 sequence (P42681 1-527): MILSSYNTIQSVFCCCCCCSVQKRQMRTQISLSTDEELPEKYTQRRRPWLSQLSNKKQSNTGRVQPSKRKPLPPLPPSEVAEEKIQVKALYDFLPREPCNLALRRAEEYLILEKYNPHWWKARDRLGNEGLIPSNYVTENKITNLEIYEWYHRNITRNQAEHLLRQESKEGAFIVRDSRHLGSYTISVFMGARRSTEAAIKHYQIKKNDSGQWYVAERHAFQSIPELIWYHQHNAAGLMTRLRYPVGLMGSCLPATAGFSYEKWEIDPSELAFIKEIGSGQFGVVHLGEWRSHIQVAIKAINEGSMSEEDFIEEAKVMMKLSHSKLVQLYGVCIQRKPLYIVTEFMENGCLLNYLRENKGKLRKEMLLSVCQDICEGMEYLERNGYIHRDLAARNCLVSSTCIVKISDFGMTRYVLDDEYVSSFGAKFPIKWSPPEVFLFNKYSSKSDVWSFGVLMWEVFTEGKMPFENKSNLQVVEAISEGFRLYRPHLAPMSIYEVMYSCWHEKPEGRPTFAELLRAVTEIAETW
Experimental: as §1

ALK = ALK (Homo sapiens, UniProt Q9UM73); test: Kinome profiling ALK; conditions: read-out: Inhibitory activity ALK; for inhibition at 0.1 µM: 100 nM
Experimental: as §1

INSR = INSR (Homo sapiens, UniProt P06213); test: Kinome profiling INSR; conditions: read-out: Inhibitory activity INSR; for inhibition at 0.1 µM: 100 nM
Experimental: as §1

ROS = ROS (Homo sapiens, UniProt P08922); test: Kinome profiling ROS; conditions: read-out: Inhibitory activity ROS; for inhibition at 0.1 µM: 100 nM
Experimental: as §1

MAPK1 = MAPK1 (Homo sapiens, UniProt P28482); test: Kinome profiling MAPK1; conditions: read-out: Inhibitory activity MAPK1; for inhibition at 0.1 µM: 100 nM
Experimental: as §1

TIE2 = TIE2 (Homo sapiens, UniProt Q02763); test: Kinome profiling TIE2; conditions: read-out: Inhibitory activity TIE2; for inhibition at 0.1 µM: 100 nM
Experimental: as §1

MKNK1 = MKNK1 (Homo sapiens, UniProt Q9BUB5); test: Kinome profiling MKNK1; conditions: read-out: Inhibitory activity MKNK1; for inhibition at 0.1 µM: 100 nM
Experimental: as §1

TRKB = TRKB (Homo sapiens, UniProt Q16620); test: Kinome profiling TRKB; conditions: read-out: Inhibitory activity TRKB; for inhibition at 0.1 µM: 100 nM
Experimental: as §1

SGK2 = target: T2, SGK2 (Homo sapiens, UniProt Q9HBY8); test: Kinome profiling SGK2; conditions: read-out: Inhibitory activity SGK2; for inhibition at 0.1 µM: 100 nM
T2 sequence (Q9HBY8 1-367): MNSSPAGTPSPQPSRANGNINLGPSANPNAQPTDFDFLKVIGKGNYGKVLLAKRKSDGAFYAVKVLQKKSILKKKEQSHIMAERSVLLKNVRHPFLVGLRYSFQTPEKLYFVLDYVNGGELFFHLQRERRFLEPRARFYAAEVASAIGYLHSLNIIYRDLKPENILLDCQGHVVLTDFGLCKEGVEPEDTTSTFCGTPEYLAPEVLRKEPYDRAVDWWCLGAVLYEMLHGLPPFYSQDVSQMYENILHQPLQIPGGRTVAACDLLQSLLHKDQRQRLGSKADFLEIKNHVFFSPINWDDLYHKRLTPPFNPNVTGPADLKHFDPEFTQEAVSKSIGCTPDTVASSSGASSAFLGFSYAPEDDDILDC
Experimental: as §1

PI4-K-β = PI4-K-β (Homo sapiens, UniProt Q9UBF8); test: Kinome profiling PI4-K-β; conditions: read-out: Inhibitory activity PI4-K-β; for inhibition at 0.1 µM: 100 nM
Experimental: as §1

BRSK1 = target: T3, BRSK1 (Homo sapiens, UniProt Q8TDC3); test: Kinome profiling BRSK1; conditions: read-out: Inhibitory activity BRSK1; for inhibition at 0.1 µM: 100 nM
T3 sequence (Q8TDC3 1-778): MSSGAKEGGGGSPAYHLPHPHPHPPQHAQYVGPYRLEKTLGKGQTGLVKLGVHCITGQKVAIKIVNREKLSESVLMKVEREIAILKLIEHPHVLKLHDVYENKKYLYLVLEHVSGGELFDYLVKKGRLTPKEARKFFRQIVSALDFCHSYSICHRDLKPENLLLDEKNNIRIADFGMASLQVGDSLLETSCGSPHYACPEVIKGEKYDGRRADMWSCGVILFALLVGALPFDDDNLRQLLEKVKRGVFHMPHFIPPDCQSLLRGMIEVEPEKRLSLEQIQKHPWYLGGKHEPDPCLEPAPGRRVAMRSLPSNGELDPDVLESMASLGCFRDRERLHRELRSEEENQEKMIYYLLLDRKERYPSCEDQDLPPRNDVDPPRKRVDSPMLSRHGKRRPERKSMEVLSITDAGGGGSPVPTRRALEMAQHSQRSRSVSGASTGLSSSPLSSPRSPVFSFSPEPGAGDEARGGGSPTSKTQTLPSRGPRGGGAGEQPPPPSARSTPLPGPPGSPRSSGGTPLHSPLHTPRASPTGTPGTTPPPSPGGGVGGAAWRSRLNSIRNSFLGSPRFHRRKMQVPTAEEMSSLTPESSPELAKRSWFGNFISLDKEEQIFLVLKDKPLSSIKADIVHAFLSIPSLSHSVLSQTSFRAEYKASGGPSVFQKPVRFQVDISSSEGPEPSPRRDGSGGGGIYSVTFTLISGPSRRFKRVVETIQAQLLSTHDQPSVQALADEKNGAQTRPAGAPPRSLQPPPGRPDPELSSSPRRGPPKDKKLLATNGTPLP
Experimental: as §1

PIM-1 = PIM-1 (Homo sapiens, UniProt P11309); test: Kinome profiling PIM-1; conditions: read-out: Inhibitory activity PIM-1; for inhibition at 0.1 µM: 100 nM
Experimental: as §1

[1] = Table 4, read-out: Inhibitory Activity PDGFR-BETA
[2] = read-out: Inhibitory activity PDGFRβ

Chain of TIE2 (Q02763 23-1124): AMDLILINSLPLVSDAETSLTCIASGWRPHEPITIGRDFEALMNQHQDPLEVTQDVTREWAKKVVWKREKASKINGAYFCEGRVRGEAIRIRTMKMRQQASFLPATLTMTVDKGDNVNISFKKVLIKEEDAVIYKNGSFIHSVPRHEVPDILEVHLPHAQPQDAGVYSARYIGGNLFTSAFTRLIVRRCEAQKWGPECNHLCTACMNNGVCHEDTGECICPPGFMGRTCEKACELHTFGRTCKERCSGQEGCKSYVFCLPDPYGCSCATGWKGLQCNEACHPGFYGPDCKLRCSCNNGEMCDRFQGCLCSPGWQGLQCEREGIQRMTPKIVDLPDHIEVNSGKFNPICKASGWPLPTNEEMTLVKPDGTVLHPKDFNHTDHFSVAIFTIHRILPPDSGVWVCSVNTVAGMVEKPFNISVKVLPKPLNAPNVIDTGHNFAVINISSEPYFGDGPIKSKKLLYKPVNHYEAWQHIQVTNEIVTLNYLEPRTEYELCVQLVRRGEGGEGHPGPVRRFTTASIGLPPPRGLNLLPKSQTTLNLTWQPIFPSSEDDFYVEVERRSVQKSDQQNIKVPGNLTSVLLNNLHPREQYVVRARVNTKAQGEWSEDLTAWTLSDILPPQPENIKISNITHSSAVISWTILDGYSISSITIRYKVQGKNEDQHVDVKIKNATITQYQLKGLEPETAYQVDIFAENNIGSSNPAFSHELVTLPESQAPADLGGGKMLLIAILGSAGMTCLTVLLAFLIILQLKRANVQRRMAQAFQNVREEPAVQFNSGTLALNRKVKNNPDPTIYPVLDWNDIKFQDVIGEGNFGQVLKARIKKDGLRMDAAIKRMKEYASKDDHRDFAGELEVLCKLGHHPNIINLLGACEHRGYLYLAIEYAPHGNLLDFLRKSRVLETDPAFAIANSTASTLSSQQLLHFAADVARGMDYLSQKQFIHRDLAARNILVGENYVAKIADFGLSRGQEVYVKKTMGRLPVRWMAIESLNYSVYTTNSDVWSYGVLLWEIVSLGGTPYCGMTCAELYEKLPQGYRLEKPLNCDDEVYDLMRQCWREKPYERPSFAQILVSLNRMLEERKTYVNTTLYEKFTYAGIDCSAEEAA
Chain of MKNK1 (Q9BUB5 whole entry): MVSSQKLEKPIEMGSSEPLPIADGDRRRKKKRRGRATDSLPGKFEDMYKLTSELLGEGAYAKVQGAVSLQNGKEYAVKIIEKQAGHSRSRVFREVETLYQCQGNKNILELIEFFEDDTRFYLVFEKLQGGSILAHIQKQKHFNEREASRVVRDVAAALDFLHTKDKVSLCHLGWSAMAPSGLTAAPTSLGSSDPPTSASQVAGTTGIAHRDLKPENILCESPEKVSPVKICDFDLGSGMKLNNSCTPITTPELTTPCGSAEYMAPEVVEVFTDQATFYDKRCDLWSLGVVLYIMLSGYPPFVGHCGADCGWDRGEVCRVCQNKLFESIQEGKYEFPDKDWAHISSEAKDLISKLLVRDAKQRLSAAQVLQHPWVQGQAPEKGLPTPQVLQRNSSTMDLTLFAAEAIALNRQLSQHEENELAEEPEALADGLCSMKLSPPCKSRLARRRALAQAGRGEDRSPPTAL
Chain of PI4-K-β (Q9UBF8 whole entry): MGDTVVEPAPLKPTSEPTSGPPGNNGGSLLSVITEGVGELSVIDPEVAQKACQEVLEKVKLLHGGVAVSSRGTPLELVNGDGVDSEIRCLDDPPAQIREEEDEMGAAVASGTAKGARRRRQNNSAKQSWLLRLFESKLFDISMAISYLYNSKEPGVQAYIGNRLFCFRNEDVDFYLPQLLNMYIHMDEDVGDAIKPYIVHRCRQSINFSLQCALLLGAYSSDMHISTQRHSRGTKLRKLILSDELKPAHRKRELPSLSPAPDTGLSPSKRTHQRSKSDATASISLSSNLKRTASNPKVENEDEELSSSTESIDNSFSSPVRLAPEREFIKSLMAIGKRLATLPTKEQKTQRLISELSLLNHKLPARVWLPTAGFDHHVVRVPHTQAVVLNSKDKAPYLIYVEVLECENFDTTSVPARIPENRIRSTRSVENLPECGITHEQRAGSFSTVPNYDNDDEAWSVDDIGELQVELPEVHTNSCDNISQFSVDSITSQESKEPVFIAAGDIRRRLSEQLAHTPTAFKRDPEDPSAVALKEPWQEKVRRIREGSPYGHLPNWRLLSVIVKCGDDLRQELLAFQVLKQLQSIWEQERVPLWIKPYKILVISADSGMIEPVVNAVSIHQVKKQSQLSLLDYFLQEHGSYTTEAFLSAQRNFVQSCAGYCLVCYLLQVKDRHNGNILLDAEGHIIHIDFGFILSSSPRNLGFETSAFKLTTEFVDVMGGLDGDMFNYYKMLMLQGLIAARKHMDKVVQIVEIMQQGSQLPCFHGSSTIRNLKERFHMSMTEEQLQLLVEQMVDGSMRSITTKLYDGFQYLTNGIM
Chain of MAPK1 (P28482 whole entry): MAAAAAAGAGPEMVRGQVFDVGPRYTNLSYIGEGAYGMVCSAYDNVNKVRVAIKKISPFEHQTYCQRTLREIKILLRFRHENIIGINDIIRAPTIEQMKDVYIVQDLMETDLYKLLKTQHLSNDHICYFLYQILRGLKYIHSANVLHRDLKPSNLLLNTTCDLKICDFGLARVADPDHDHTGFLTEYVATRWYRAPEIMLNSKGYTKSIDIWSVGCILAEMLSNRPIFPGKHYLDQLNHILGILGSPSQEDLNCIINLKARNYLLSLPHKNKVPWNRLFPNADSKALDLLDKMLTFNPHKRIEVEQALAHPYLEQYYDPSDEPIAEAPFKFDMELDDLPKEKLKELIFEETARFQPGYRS
Chain of PIM-1 (P11309 whole entry): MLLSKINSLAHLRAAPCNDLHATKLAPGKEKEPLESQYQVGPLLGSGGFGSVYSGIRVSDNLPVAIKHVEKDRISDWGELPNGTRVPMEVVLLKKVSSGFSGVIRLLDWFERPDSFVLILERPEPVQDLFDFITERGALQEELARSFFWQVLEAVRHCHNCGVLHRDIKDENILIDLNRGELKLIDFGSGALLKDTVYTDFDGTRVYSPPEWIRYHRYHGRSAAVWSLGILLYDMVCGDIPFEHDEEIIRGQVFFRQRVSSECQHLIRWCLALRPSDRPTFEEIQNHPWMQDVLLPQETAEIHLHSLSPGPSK
Chain of TRKB (Q16620 32-822): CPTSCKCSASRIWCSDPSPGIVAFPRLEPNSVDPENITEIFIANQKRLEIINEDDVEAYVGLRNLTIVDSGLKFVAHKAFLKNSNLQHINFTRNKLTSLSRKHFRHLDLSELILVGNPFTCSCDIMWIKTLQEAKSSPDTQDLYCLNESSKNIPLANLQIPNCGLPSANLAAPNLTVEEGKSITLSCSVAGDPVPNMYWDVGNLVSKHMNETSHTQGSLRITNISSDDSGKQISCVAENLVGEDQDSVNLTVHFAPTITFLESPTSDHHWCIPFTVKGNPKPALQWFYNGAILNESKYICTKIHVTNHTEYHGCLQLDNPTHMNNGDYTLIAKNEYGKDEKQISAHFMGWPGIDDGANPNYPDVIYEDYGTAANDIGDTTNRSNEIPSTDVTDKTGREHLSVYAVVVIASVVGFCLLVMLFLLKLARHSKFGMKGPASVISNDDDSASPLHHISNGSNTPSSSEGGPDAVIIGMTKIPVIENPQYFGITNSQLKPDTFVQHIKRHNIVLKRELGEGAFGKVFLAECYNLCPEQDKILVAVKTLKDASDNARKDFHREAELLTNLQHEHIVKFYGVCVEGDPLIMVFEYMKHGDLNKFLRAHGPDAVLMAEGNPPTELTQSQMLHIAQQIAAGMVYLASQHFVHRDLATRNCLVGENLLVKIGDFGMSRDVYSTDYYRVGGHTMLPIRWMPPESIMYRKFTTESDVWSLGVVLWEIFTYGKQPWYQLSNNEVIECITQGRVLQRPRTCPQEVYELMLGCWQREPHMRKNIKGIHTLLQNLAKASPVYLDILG
Chain of PDGFRβ (P09619 33-1106): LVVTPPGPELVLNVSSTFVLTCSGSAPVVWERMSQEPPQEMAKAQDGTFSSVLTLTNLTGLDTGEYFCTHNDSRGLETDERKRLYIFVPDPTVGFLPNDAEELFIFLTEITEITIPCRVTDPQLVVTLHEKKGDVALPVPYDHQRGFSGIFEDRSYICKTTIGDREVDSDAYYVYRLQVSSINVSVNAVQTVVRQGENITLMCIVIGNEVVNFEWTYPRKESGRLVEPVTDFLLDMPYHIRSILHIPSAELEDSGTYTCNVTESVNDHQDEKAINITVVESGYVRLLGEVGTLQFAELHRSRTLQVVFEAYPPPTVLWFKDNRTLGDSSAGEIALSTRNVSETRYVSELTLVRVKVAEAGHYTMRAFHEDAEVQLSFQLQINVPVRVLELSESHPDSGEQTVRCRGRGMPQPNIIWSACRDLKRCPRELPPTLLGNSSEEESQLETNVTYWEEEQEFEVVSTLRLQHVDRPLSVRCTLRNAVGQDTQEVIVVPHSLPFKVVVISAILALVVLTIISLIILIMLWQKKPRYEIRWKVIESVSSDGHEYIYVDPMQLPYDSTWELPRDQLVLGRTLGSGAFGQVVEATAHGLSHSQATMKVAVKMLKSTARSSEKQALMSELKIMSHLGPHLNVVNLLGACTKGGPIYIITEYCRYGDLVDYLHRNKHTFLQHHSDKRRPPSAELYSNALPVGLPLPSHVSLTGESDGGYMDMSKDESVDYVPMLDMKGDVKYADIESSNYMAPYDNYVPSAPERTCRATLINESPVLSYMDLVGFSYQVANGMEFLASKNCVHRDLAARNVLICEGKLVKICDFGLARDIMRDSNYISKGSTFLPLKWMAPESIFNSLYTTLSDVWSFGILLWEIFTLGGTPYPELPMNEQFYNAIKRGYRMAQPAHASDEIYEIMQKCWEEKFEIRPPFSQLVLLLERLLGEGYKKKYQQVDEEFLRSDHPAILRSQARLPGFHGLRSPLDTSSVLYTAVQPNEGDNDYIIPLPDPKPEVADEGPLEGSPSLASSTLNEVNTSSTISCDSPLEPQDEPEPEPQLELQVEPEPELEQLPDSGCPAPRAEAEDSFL

## COc1cc(-c2cc(-c3ccc(N4CCNCC4)cc3)cnc2C)cc(OC)c1OC [Compound 10, 1-(4-(6-methyl-5-(3,4,5-trimethoxyphenyl)pyridin-3-yl)phenyl)piperazine]
PDGFRβ; [1]
  inhibition at 0.1 µM: 17%
  inhibition at 1 µM: 64%
PDGFRβ; [2]
  inhibition at 0.1 µM: 17%
  inhibition at 1 µM: 64%
TXK
  inhibition at 0.1 µM: 12%
  inhibition at 1 µM: 14%
ALK
  inhibition at 0.1 µM: 2%
  inhibition at 1 µM: 7%
INSR
  inhibition at 0.1 µM: 3%
  inhibition at 1 µM: 3%
ROS
  inhibition at 0.1 µM: 2%
  inhibition at 1 µM: 2%
MAPK1
  inhibition at 0.1 µM: 1%
  inhibition at 1 µM: 1%
TIE2
  inhibition at 0.1 µM: 1%
  inhibition at 1 µM: 0%
MKNK1
  inhibition at 0.1 µM: 3%
  inhibition at 1 µM: 5%
TRKB
  inhibition at 0.1 µM: 3%
  inhibition at 1 µM: 3%
SGK2
  inhibition at 0.1 µM: 1%
  inhibition at 1 µM: -1%
PI4-K-β
  inhibition at 0.1 µM: -10%
  inhibition at 1 µM: -15%
BRSK1
  inhibition at 0.1 µM: 1%
  inhibition at 1 µM: 1%
PIM-1
  inhibition at 0.1 µM: 1%
  inhibition at 1 µM: 0%

## COc1cc(-c2cc(-c3ccc(N4CCNCC4)cc3)cnc2N)cc(OC)c1OC [Compound 15, 5-(4-(piperazin-1-yl)phenyl)-3-(3,4,5-trimethoxyphenyl)pyridin-2-amine]
PDGFRβ; [2]
  inhibition at 0.1 µM: 47%
  inhibition at 1 µM: 77%
TXK
  inhibition at 0.1 µM: 21%
  inhibition at 1 µM: 66%
ALK
  inhibition at 0.1 µM: 6%
  inhibition at 1 µM: 36%
INSR
  inhibition at 0.1 µM: 4%
  inhibition at 1 µM: 8%
ROS
  inhibition at 0.1 µM: 1%
  inhibition at 1 µM: 7%
MAPK1
  inhibition at 0.1 µM: 3%
  inhibition at 1 µM: 6%
TIE2
  inhibition at 0.1 µM: 1%
  inhibition at 1 µM: 6%
MKNK1
  inhibition at 0.1 µM: 3%
  inhibition at 1 µM: 5%
TRKB
  inhibition at 0.1 µM: 2%
  inhibition at 1 µM: 3%
SGK2
  inhibition at 0.1 µM: 2%
  inhibition at 1 µM: 3%
PI4-K-β
  inhibition at 0.1 µM: 1%
  inhibition at 1 µM: 1%
BRSK1
  inhibition at 0.1 µM: 0%
  inhibition at 1 µM: 0%
PIM-1
  inhibition at 0.1 µM: 0%
  inhibition at 1 µM: -1%
